Experimental data as given in US20240246964A1 (Arbutus Biopharma Corporation, priority 2021, published 2024).

What was measured:
[1] = target: human PD-L1 (Homo sapiens (Human), UniProt Q9NZQ7); experiment: T cell activation luciferase reporter cell culture system (T Cell Activation Assay); format: cell-based; conditions: luciferase reporter assay; PD-L1 aAPC/CHO-K1 cells with PD-1 effector Jurkat T cells
[2] = target: PD-L1 His protein / PD-1 Fc protein (Homo sapiens (Human), UniProt Q9NZQ7); experiment: HTRF Assay (PD-1/PD-L1 interaction); format: binding; conditions: PD-L1 His 6 nM, PD-1 Fc 6 nM
Chain of PD-L1 His protein / PD-1 Fc protein (Q9NZQ7 19-238): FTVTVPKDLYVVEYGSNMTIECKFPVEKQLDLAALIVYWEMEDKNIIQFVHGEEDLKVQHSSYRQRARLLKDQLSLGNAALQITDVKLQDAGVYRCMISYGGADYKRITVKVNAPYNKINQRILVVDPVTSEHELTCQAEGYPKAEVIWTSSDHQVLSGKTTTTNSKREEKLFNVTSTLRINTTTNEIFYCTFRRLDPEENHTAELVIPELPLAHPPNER

Chain of human PD-L1 (Q9NZQ7 19-290): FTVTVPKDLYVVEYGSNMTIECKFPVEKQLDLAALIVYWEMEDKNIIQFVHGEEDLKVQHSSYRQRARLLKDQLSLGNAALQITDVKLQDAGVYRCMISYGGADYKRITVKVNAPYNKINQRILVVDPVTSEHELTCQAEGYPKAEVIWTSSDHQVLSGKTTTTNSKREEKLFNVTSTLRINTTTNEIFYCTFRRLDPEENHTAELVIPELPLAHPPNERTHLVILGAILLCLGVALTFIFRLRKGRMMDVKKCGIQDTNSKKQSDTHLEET

Row | Compound | EC50 [1] [nM] | IC50 [2] [nM]
1 | COc1cc(-c2nccc(-c3cccc(-c4ccc(CN[C@@H]5CCC(=O)NC5)c(OC)n4)c3Cl)c2Cl)ccc1CNC1CCN(C(C)=O)CC1 [Example 541, (R)-5-(((6-(3-(2-(4-(((1-Acetylpiperidin-4-yl)amino)methyl)-3-methoxyphenyl)-3-chloropyridin-4-yl)-2-chlorophenyl)-2-methoxypyridin-3-yl)methyl)amino)piperidin-2-one] | 93.4 | 0.79
2 | COc1cc(-c2nccc(-c3cccc(-c4ccc(CN[C@H]5CCC(=O)NC5)c(OC)n4)c3Cl)c2Cl)ccc1CNC1CCN(C(C)=O)CC1 [Example 542, (S)-5-(((6-(3-(2-(4-(((1-Acetylpiperidin-4-yl)amino)methyl)-3-methoxyphenyl)-3-chloropyridin-4-yl)-2-chlorophenyl)-2-methoxypyridin-3-yl)methyl)amino)piperidin-2-one] | 79.2 | 0.53
3 | COc1cc(-c2ncnc(-c3cccc(-c4ccc(CNC[C@@H]5CCC(=O)N5)c(OC)n4)c3Cl)c2Cl)ccc1CNC[C@@H]1CCC(=O)N1 [Example 543, (S)-5-((((6-(2-chloro-3-(5-chloro-6-(3-methoxy-4-(((((S)-5-oxopyrrolidin-2-yl)methyl)amino)methyl)phenyl)pyrimidin-4-yl)phenyl)-2-methoxypyridin-3-yl)methyl)amino)methyl)pyrrolidin-2-one] | 17.5 | 0.29
4 | COCCC(=O)N1CCC(NCc2ccc(-c3nccc(-c4cccc(-c5ccc(CNC6CCN(C(=O)CCOC)CC6)c(OC)n5)c4Cl)c3Cl)cc2OC)CC1 [Example 546, 1-(4-(((6-(2-Chloro-3-(3-chloro-2-(3-methoxy-4-(((1-(3-methoxypropanoyl)piperidin-4-yl)amino)methyl)phenyl)pyridin-4-yl)phenyl)-2-methoxypyridin-3-yl)methyl)amino)piperidin-1-yl)-3-methoxypropan-1-one] | 19.5 | 1.25
5 | COc1nc(-c2ccnc(-c3cccc4c3CC[C@@H]4Oc3nc(OC)c(CNC4CCN(C(C)=O)CC4)cc3C(F)(F)F)c2Cl)ccc1CN1CC2(CNC(=O)C2)C1 [Example 551, (S)-2-((2′-(1-((5-(((1-Acetylpiperidin-4-yl)amino)methyl)-6-methoxy-3-(trifluoromethyl)pyridin-2-yl)oxy)-2,3-dihydro-1H-inden-4-yl)-3′-chloro-6-methoxy-[2,4′-bipyridin]-5-yl)methyl)-2,6-diazaspiro[3.4]octan-7-one] | 182 | 0.32
6 | COc1nc(-c2ccnc(-c3cccc4c3CC[C@@H]4Oc3nc(OC)c(CNC4CCOCC4)cc3C(F)(F)F)c2Cl)ccc1CN1CC2(CNC(=O)C2)C1 [Example 552, (S)-2-((3′-Chloro-6-methoxy-2′-(1-((6-methoxy-5-(((tetrahydro-2H-pyran-4-yl)amino)methyl)-3-(trifluoromethyl)pyridin-2-yl)oxy)-2,3-dihydro-1H-inden-4-yl)-[2,4′-bipyridin]-5-yl)methyl)-2,6-diazaspiro[3.4]octan-7-one] | 144 | 0.25
7 | COc1cc(-c2nccc(-c3cccc(-c4ccc5c(CNC6CCOCC6)cn(C)c5n4)c3Cl)c2Cl)ccc1CNC1CCN(C(C)=O)CC1 [Example 556, 1-(4-((4-(3-Chloro-4-(2-chloro-3-(1-methyl-3-(((tetrahydro-2H-pyran-4-yl)amino)methyl)-1H-pyrrolo[2,3-b]pyridin-6-yl)phenyl)pyridin-2-yl)-2-methoxybenzyl)amino)piperidin-1-yl)ethan-1-one] | 222 | 1.22
8 | COc1cc(-c2nccc(-c3cccc(-c4ccc5c(CNCCO)cn(C)c5n4)c3Cl)c2Cl)ccc1CNC1CCN(C(C)=O)CC1 [Example 559, 1-(4-((4-(3-Chloro-4-(2-chloro-3-(3-(((2-hydroxyethyl)amino)methyl)-1-methyl-1H-pyrrolo[2,3-b]pyridin-6-yl)phenyl)pyridin-2-yl)-2-methoxybenzyl)amino)piperidin-1-yl)ethan-1-one] | 73.2 | 1.61
9 | COc1cc(-c2nccc(-c3cccc(-c4cnc(CNC5CCN(C(C)=O)CC5)c(OC)c4)c3Cl)c2Cl)ccc1CNC1CCN(C(C)=O)CC1 [Example 565, 1-(4-(((5-(3-(2-(4-(((1-acetylpiperidin-4-yl)amino)methyl)-3-methoxyphenyl)-3-chloropyridin-4-yl)-2-chlorophenyl)-3-methoxypyridin-2-yl)methyl)amino)piperidin-1-yl)ethan-1-one] | 1040 | 1.72
10 | COc1cc(-c2nccc(-c3cccc(-c4ccc(CN5CC6(COC6)C5)c(OC)n4)c3C(F)(F)F)c2Cl)ccc1CN1CC2(COC2)C1 [Example 578, 6-(4-(4-(3-(5-((2-Oxa-6-azaspiro[3.3]heptan-6-yl)methyl)-6-methoxypyridin-2-yl)-2-(trifluoromethyl)phenyl)-3-chloropyridin-2-yl)-2-methoxybenzyl)-2-oxa-6-azaspiro[3.3]heptane] | ≥ 10000 | 70.3
11 | COc1nc(-c2cccc(-c3ccnc(-c4ccc5c(c4)S(=O)(=O)CCN(C[C@@H]4CCC(=O)N4)C5)c3Cl)c2Cl)ccc1CNC[C@@H]1CCC(=O)N1 [Example 582, (S)-5-((((6-(2-Chloro-3-(3-chloro-2-(1,1-dioxido-4-(((S)-5-oxopyrrolidin-2-yl)methyl)-2,3,4,5-tetrahydrobenzo[f][1,4]thiazepin-8-yl)pyridin-4-yl)phenyl)-2-methoxypyridin-3-yl)methyl)amino)methyl)pyrrolidin-2-one] | 1040 | 1.58
12 | CCOc1cc(-c2nccc(-c3cccc(-c4ccc(CNC5CCN(C(C)=O)CC5)c(OC)n4)c3Cl)c2Cl)cn2nc(CN[C@H]3C[C@](C)(O)C3)nc12 [Example 584, 1-(4-(((6-(2-Chloro-3-(3-chloro-2-(8-ethoxy-2-((((1r,3r)-3-hydroxy-3-methylcyclobutyl)amino)methyl)-[1,2,4]triazolo[1,5-a]pyridin-6-yl)pyridin-4-yl)phenyl)-2-methoxypyridin-3-yl)methyl)amino)piperidin-1-yl)ethan-1-one] | ≥ 10000 | 2.21
13 | COc1cc(-c2nccc(-c3cccc(-c4ccc(CNCCCF)c(OC)n4)c3C(F)(F)F)c2Cl)ccc1CNCCCF [Example 587, N-((6-(3-(3-Chloro-2-(4-(((3-fluoropropyl)amino)methyl)-3-methoxyphenyl)pyridin-4-yl)-2-(trifluoromethyl)phenyl)-2-methoxypyridin-3-yl)methyl)-3-fluoropropan-1-amine] | ≥ 10000 | 160
14 | COc1cc(-c2nccc(-c3cccc(-c4ccc(CNC56CC(CO)(C5)C6)c(OC)n4)c3Cl)c2Cl)ccc1CNC12CC(CO)(C1)C2 [Example 591, (3-(((6-(2-chloro-3-(3-chloro-2-(4-(((3-(hydroxymethyl)bicyclo[1.1.1]pentan-1-yl)amino)methyl)-3-methoxyphenyl)pyridin-4-yl)phenyl)-2-methoxypyridin-3-yl)methyl)amino)bicyclo[1.1.1]pentan-1-yl)methanol] | 469 | 24.5
15 | COc1cc(-c2ncnc(-c3cccc(-c4ccc(CN[C@H]5C[C@H](O)C5)c(OC)n4)c3Cl)c2Cl)ccc1CN[C@H]1C[C@H](O)C1 [Example 593, (1r,3r)-3-(((6-(2-Chloro-3-(5-chloro-6-(4-((((1r,3r)-3-hydroxycyclobutyl)amino)methyl)-3-methoxyphenyl)pyrimidin-4-yl)phenyl)-2-methoxypyridin-3-yl)methyl)amino)cyclobutan-1-ol] | 104 | 0.16
16 | COc1nc(-c2cccc(-c3ccnc(-c4cc(OC)c5nc(CN[C@H]6CC[C@H](O)CC6)nn5c4)c3Cl)c2Cl)ccc1CNC1CCN(C(C)=O)CC1 [Example 595, 1-(4-(((6-(2-Chloro-3-(3-chloro-2-(2-((((1r,4r)-4-hydroxycyclohexyl)amino)methyl)-8-methoxy-[1,2,4]triazolo[1,5-a]pyridin-6-yl)pyridin-4-yl)phenyl)-2-methoxypyridin-3-yl)methyl)amino)piperidin-1-yl)ethan-1-one] | 211 | 0.38
17 | COc1cc(-c2nccc(-c3cccc(-c4ccc([C@H](C)NC5CCN(C(C)=O)CC5)c(OC)n4)c3Cl)c2Cl)ccc1[C@H](C)NC1CCN(C(C)=O)CC1 [Example 599, 1-(4-(((S)-1-(6-(3-(2-(4-((S)-1-((1-Acetylpiperidin-4-yl)amino)ethyl)-3-methoxyphenyl)-3-chloropyridin-4-yl)-2-chlorophenyl)-2-methoxypyridin-3-yl)ethyl)amino)piperidin-1-yl)ethan-1-one] | ≥ 10000 | 1.01
18 | COCC(=O)N1CCC(NCc2ccc(-c3nccc(-c4cccc(-c5ccc(CNC6CCN(C(=O)COC)CC6)c(OC)n5)c4C(F)(F)F)c3Cl)cc2OC)CC1 [Example 602, 1-(4-(((6-(3-(3-Chloro-2-(3-methoxy-4-(((1-(2-methoxyacetyl)piperidin-4-yl)amino)methyl)phenyl)pyridin-4-yl)-2-(trifluoromethyl)phenyl)-2-methoxypyridin-3-yl)methyl)amino)piperidin-1-yl)-2-methoxyethan-1-one] | ≥ 10000 | 41.3
19 | COc1cc(-c2nccc(-c3cccc(-c4ccc(CNC[C@@H]5CCC(=O)N5)c(OC)n4)c3C(F)(F)F)c2Cl)ccc1CNC[C@@H]1CCC(=O)N1 [Example 610, (S)-5-((((6-(3-(3-Chloro-2-(3-methoxy-4-(((((S)-5-oxopyrrolidin-2-yl)methyl)amino)methyl)phenyl)pyridin-4-yl)-2-(trifluoromethyl)phenyl)-2-methoxypyridin-3-yl)methyl)amino)methyl)pyrrolidin-2-one] | 2110 | 1.52
20 | COc1nc(-c2cccc(-c3ccnc(-c4cc(OC)c5nc(CN6CC(C)(O)C6)nn5c4)c3Cl)c2Cl)ccc1CNC1CCN(C(C)=O)CC1 [Example 637, 1-(4-(((6-(2-chloro-3-(3-chloro-2-(2-((3-hydroxy-3-methylazetidin-1-yl)methyl)-8-methoxy-[1,2,4]triazolo[1,5-a]pyridin-6-yl)pyridin-4-yl)phenyl)-2-methoxypyridin-3-yl)methyl)amino)piperidin-1-yl)ethan-1-one] | 116 | 0.29
